# In patent US20050221328A1, “Inhibitors of inflammatory gene activity and cholesterol biosynthesis” (Wyeth, priority 2002, published 2005):
# Legend:
# [1] = test system: Fnk, JAB, LIX, and bcl-3; test: EE alteration of IL-1β induction of Fnk, JAB, LIX and bcl-3 in liver, spleen and lung; format: in vivo, mouse; conditions: EE pretreatment
# Source text: The requirement for ERα for EE activity in the liver is consistent with the nearly exclusive presence of ERα in the liver (as determined by realtime PCR, panel A). In contrast, the lung expresses relatively low levels of ERα and high levels of ERB. […] In contrast, EE pretreatment had no effect on IL-1β induction of Fnk, JAB, LIX, or bcl-3 in the lung.
# [2] = test system: mouse liver; conditions: GeneChip, 1 h after 20 ug/kg IL-1β ip, pretreated 5 days with vehicle or 100 ug/kg/day EE sc, vehicle+PBS=1.0;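 also: ovariectomized C57BL/6 mice, liver polyA RNA profiled, values are fold expression relative to vehicle plus PBS, averaged over two independent experiments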
# Protocol: Experiments were conducted to evaluate IL-1β regulation of gene expression in the mouse liver. Ovariectomized C57BL/6 mice were pretreated by subcutaneous administration of either corn oil/ethanol vehicle or 100 ug/kg/day ethynylestradiol (EE) for 5 days. On the fifth day, the mice received an intraperitoneal injection of either PBS or 20 ug/kg IL-1β in PBS. One hour later the livers were removed and polyA RNA was prepared. Global gene expression was determined by analysis using murine 11K GeneChips from Affymetrix. For each gene, the level of expression in animals receiving vehicle pretreatment plus PBS was defined as 1.0, with the expression levels in the mice receiving vehicle pretreatment±IL-1β or EE pretreatment±IL-1β defined relative to this. The results shown are the mean from two independent experiments.
# The fold regulation of each gene is plotted for animals receiving vehicle pretreatment x-axis) vs. animals receiving pretreatment with EE (y-axis). Genes with IL-1β induction unaffected by EE pretreatment would lie along the dotted diagonal.
# [3] = test system: Fnk, JAB, LIX, bcl-3 and SHP; test: Liver expression of Fnk, JAB, LIX, bcl-3 and SHP by realtime PCR after estrogen receptor ligand pretreatment and IL-1β; conditions: for effect on regulation of liver Fnk, JAB, LIX, bcl-3 and SHP expression vs IL-1β alone: mice, 1 or 10 mg/kg/day E2, 30 mg/kg/day genistein, 10 mg/kg/day ICI182780, plus IL-1β; for effect on regulation of liver Fnk, JAB, LIX, bcl-3 and SHP expression vs IL-1β alone / inhibition of IL-1β induction of Fnk, JAB, LIX and bcl-3: 100 ug/kg/day EE, 5 mg/kg/day raloxifene; for inhibition of IL-1β induction of Fnk, JAB, LIX and bcl-3: 30 mg/kg/day genistein
# Protocol: Referring to FIG. 3a, to distinguish these two mechanisms, the IL-1β fold induction of Fnk, JAB, LIX, and bcl-3 and the IL-1β fold repression of SHP was quantified in animals pretreated with vehicle (black bars) or 100 ug/kg/day EE (grey bars). Liver RNA levels of each gene (mean +/−SEM) were determined by realtime PCR of RNA from each individual animal.
# Referring to FIGS. 4a, 4b, 4c, 4d and 4e, experiments were conducted to determine whether EE blocks IL-1β induction of gene expression by an estrogen receptor (ER) dependent mechanism. Estrogens can regulate gene expression by many mechanisms including ER independent pathways such as antioxidant mechanisms. […] Liver expression levels of Fnk, JAB, LIX, bcl-3 and SHP (mean +/−SEM) were determined by realtime PCR.
# Referring to FIGS. 5a, 5b, 5c, 5d, and 5e, experiments were conducted to determine whether ERα is required for EE regulation of gene expression in the liver. To determine whether ERα or ERβ mediated the EE effects on IL-1β gene expression in the liver, C57BL/6 wild type mice, C57BL/6 ERαKO mice, or 129 ERβKO mice were pretreated with vehicle (black bars) or […] EE (gray bars) for 5 days followed by a 1 hour treatment with IL-1β. Liver expression levels of Fnk, JAB, LIX, bcl-3, and SHP (mean +/−SEM) were quantified by realtime PCR, with expression in animals receiving vehicle+PBS defined as 1.0.
# [4] = test system: mouse liver; test: EE induction of gene expression in the mouse liver (GeneChip); format: in vivo; conditions: 100 ug/kg/day EE sc 5 days;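 also: ovariectomized C57BL/6 mice, liver polyA RNA on Affymetrix murine 11K GeneChips, fold expression versus vehicle-pretreated PBS-injected mice set to 1.0, mean of two independent experiments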
# Protocol: Ovariectomized C57BL/6 mice were pretreated by subcutaneous administration of either corn oil/ethanol vehicle or 100 ug/kg/day ethynylestradiol (EE) for 5 days. […] One hour later the livers were removed and polyA RNA was prepared. Global gene expression was determined by analysis using murine 11K GeneChips from Affymetrix. For each gene, the level of expression in animals receiving vehicle pretreatment plus PBS was defined as 1.0, with the expression levels in the mice receiving vehicle pretreatment±IL-1β or EE pretreatment±IL-1β defined relative to this. The results shown are the mean from two independent experiments.
# To determine whether EE induction of any other gene could explain the inhibition of IL-1β gene inductions, the GeneChip results were analyzed for EE induction of gene expression.
# [5] = test system: prostaglandin D synthase, IPS; test: Liver expression of prostaglandin D synthase and IPS; format: in vivo; conditions: mouse liver; 30 mg/kg/day genistein, 5 mg/kg/day raloxifene
# Source text: Referring to FIGS. 6a and 6b, experiments were constructed and performed to establish that EE induction of gene expression is not required for ERα inhibition of IL-1β gene inductions. […] The expression level in the vehicle+PBS treated mice was defined as 1.0. […] However, there was no correlation between the ability of these compounds to inhibit IL-1β gene induction (EE>genistein>raloxifene) and the ability of these compounds to stimulate prostaglandin D synthase expression (EE>>raloxifene>genistein).
# [6] = mouse liver, EE treated mice vs vehicle treated mice
smiles,measurement,setting,value
"C#C[C@]1(O)CC[C@H]2[C@@H]3CCc4cc(O)ccc4[C@H]3CC[C@@]21C [EE, ethynylestradiol]","IL-1β induction of Fnk, JAB, LIX, and bcl-3 in the liver",[1]; liver,significantly blocked
same,"IL-1β induction of Fnk, JAB, LIX, or bcl-3 in the lung",[1]; lung,no effect
same,IL-1β induction of Fnk and JAB in the spleen,[1]; spleen,blocked
same,IL-1 Induction A20 (Tnfaip3),[2],11.4 fold
same,"IL-1 Induction B94, TNF-α induced protein 2 (Tnfaip2)",[2],17.7 fold
same,IL-1 Induction C/EBPδ (Cebpd),[2],5.2 fold
same,IL-1 Induction CD14 (Cd14),[2],6.1 fold
same,IL-1 Induction CD83 (Cd83),[2],4.0 fold
same,IL-1 Induction E-selectin (Sele),[2],5.2 fold
same,IL-1 Induction Ets transcription factor ELF3 (Elf3),[2],6.7 fold
same,IL-1 Induction G0/G1 switch gene 2 (G0s2),[2],0.05 fold
same,IL-1 Induction GTP binding protein IRG-47 (lfi47),[2],3.2 fold
same,IL-1 Induction Gadd45 (Gadd45a),[2],3.6 fold
same,IL-1 Induction Glvr-1 (Slc20a1),[2],5.8 fold
same,IL-1 Induction H-2Ld (H-2L),[2],4.1 fold
same,IL-1 Induction ICAM-1 (lcam1),[2],38.4 fold
same,IL-1 Induction IL-1m (Il1m),[2],18.9 fold
same,IL-1 Induction IL-15 receptor (Il15ra),[2],2.7 fold
same,IL-1 Induction IxBa (Nfkbia),[2],7.4 fold
same,"IL-1 Induction JAB, suppressor of cytokine signaling 1 (Cish1)",[2],1.4 fold
same,IL-1 Induction JE/MCP-1 (Scya2),[2],64.4 fold
same,IL-1 Induction LIX (Scyb5),[2],2.9 fold
same,IL-1 Induction LPS inducible C—C chemokine receptor related (AF030185),[2],5.6 fold
same,IL-1 Induction M-CSF (Csf1),[2],23.9 fold
same,IL-1 Induction MARCKS-like macrophage protein (Mlp),[2],5.1 fold
same,IL-1 Induction MIG (Scyb9),[2],5.4 fold
same,IL-1 Induction MIP2 (Scyb2),[2],91.1 fold
same,IL-1 Induction MIP-1 gamma (Scya9),[2],1.9 fold
same,IL-1 Induction MyD118 (GADD45b),[2],12.9 fold
same,IL-1 Induction NF-E2 related factor 2 (NRF2) (Nfe212),[2],7.2 fold
same,IL-1 Induction NF-kappa-B p105 (Nfkb1),[2],6.2 fold
same,IL-1 Induction NFkB p100 (Nfkb2),[2],2.8 fold
same,IL-1 Induction PAI-1 (Serpine1),[2],40.8 fold
same,IL-1 Induction PDGF-induced KC (Gro1),[2],6.1 fold
same,IL-1 Induction PIM-1 protein kinase (Pim1),[2],2.1 fold
same,IL-1 Induction SHP (NrGb2),[2],0.53 fold
same,IL-1 Induction T-cell death associated gene (Tdag),[2],2.2 fold
same,IL-1 Induction T-cell specific GTPase (Tgtp),[2],2.8 fold
same,IL-1 Induction TGFB inducible early growth response (Tieg),[2],0.38 fold
same,IL-1 Induction Ubiquitin-conjugating E2 enzyme variant 2 (Ube2v2),[2],5.3 fold
same,IL-1 Induction VCAM-1 (Vcam1),[2],12.5 fold
same,"IL-1 Induction adrenergic receptor, beta 2 (Adrb2)",[2],3.1 fold
same,IL-1 Induction adrenomedullin (Adm),[2],10.0 fold
same,IL-1 Induction apoptosis inhibitor 1 (Birc2),[2],8.9 fold
same,IL-1 Induction apoptosis inhibitor 2 (Birc3),[2],4.3 fold
same,IL-1 Induction bcl-3 (Bcl3),[2],6.2 fold
same,IL-1 Induction c-JUN (Jun),[2],5.6 fold
same,IL-1 Induction calcium binding protein A6 (S100a6),[2],2.6 fold
same,IL-1 Induction calgranulin A (S100A8),[2],10.7 fold
same,IL-1 Induction calgranulin B (S100a9),[2],25.7 fold
same,IL-1 Induction cytokine-inducible kinase Fnk (Cnk),[2],0.3 fold
same,IL-1 Induction gly96 (ler3),[2],43.8 fold
same,IL-1 Induction growth factor receptor bound protein 7 (Grb7),[2],0.13 fold
same,IL-1 Induction guanylate nucleotide binding protein 2 (Gbp2),[2],3.6 fold
same,IL-1 Induction helix-loop-helix factor HES-1 (Hes1),[2],0.25 fold
same,IL-1 Induction heme oxygenase 1 (Hmox1),[2],3.0 fold
same,IL-1 Induction hsp68 (Hsp70-3),[2],1.5 fold
same,IL-1 Induction inducible 6-phosphofructo-2-kinase (AA163244),[2],3.0 fold
same,IL-1 Induction inhibitor of DNA binding 3 (idb3),[2],3.1 fold
same,IL-1 Induction insulin-like growth factor binding protein 1 (lgfbp1),[2],4.3 fold
same,IL-1 Induction intercrine (Scya7),[2],11.4 fold
same,IL-1 Induction interferon regulatory factor 1 (Irf1),[2],9.0 fold
same,IL-1 Induction junB (Junb),[2],2.6 fold
same,IL-1 Induction lipocalin 2 (Lcn2),[2],2.9 fold
same,IL-1 Induction lkB-beta (Nfkbib),[2],2.8 fold
same,IL-1 Induction m-myc (Myc),[2],3.4 fold
same,IL-1 Induction macrophage interferon inducible protein 10 (Scyb10),[2],39.3 fold
same,IL-1 Induction metalloproteinase-disintegrin (Adamts1),[2],4.6 fold
same,IL-1 Induction molecule possessing ankyrin-repeats induced by LPS (aa614971),[2],22.7 fold
same,IL-1 Induction myocyte-enriched calcineurin interactin protein (Dscrl),[2],9.3 fold
same,IL-1 Induction noctumin (Ccr4),[2],9.0 fold
same,IL-1 Induction p65 NF-kappa B (Rela),[2],2.4 fold
same,IL-1 Induction phospholipid scramblase 1 (Plscr1),[2],5.6 fold
same,IL-1 Induction protein tyrosine phosphatase 4a1 (Ptp4a1),[2],1.2 fold
same,IL-1 Induction regulator for ribosome resistance homolog (Rrr),[2],3.3 fold
same,IL-1 Induction relB (Relb),[2],7.9 fold
same,IL-1 Induction rhoB (Arhb),[2],18.5 fold
same,IL-1 Induction serum amyloid A 3 (Saa3),[2],36.0 fold
same,IL-1 Induction serum amyloid A 4 (Saa4),[2],1.9 fold
same,IL-1 Induction suppressor of cytokine signaling 2 (Cish2),[2],1.7 fold
same,IL-1 Induction suppressor of cytokine signaling 3 (Cish3),[2],6.0 fold
same,IL-1 Induction transglutaminase (Tgm2),[2],8.0 fold
same,"EE inhibition of IL-1β regulation of Fnk, JAB, LIX, bcl-3, SHP in animals lacking ERβ vs wild type","[3]; 129 ERβKO mice vs C57BL/6 wild type, 10 ug/kg/day EE 5 days, IL-1β 1 hour",comparable
same,"effect on IL-1β regulation of Fnk, JAB, LIX, bcl-3, SHP in animals lacking ERα","[3]; C57BL/6 ERαKO mice, 10 ug/kg/day EE 5 days, IL-1β 1 hour",no effect
same,"effect on regulation of liver Fnk, JAB, LIX, bcl-3 and SHP expression vs IL-1β alone",[3],greatest effect
same,IL-1 repression of SHP expression,"[3]; mouse liver, realtime PCR, vehicle treated or 100 ug/kg/day EE treated animals",85%
same,IL-1 induction of bcl-3,"[3]; mouse liver, realtime PCR, vehicle treated or 100 ug/kg/day EE treated mice, IL-1 vs PBS",5.2 fold
same,"IL-1β fold induction of Fnk, JAB, and LIX","[3]; mouse liver, 100 ug/kg/day EE pretreated vs vehicle",reduced
same,IL-1β fold regulation for bcl-3 and SHP,"[3]; mouse liver, 100 ug/kg/day EE treated vs vehicle",the same
same,"inhibition of IL-1β induction of Fnk, JAB, LIX and bcl-3",[3]; mouse liver,inhibited
same,basal expression of SHP,[3]; [6],increased
same,basal expression of bcl-3,[3]; [6],repressed
same,EE Induction C1Qc (C1qc),[4],2.3
same,EE Induction C1qB (C1qb),[4],2.8
same,EE Induction CD53 (Cd53),[4],2.9
same,EE Induction CD68 antigen (Cd68),[4],3.1
same,EE Induction CD97 (Cd97),[4],6.0
same,"EE Induction Cytochrome P450, 17 (Cyp17)",[4],32.3
same,EE Induction F4/80 (Emr1),[4],3.1
same,"EE Induction H2A histone family, member X (H2afx)",[4],5.1
same,"EE Induction Keratin complex 2, basic, gene 4 (Krt2-4)",[4],38.0
same,EE Induction apolipoprotein A-IV (Apoa4),[4],3.5
same,EE Induction apolipoprotein C2 (Apoc2),[4],2.2
same,EE Induction apoptosis inhibitory 6 (Api6),[4],3.3
same,EE Induction cadherin 1 (Cdh1),[4],2.6
same,EE Induction cathepsin S (Ctss),[4],4.0
same,EE Induction cell division cycle 2 homolog A (Cdc2a),[4],4.6
same,EE Induction colony stimulating factor 1 receptor (Csf1r),[4],2.8
same,EE Induction creatine kinase B (Ckb),[4],13.0
same,"EE Induction cytochrome P450, 7b1 (Cyp7b1)",[4],21.1
same,EE Induction desmocollin 2 (Dsc2),[4],5.0
same,"EE Induction fatty acid binding protein 7, brain (Fabp7)",[4],4.8
same,EE Induction interferon activated gene 203 (lfi203),[4],2.5
same,EE Induction interleukin 17 receptor (Il17r),[4],3.5
same,EE Induction leukemia inhibitory factor receptor (Lifr),[4],5.1
same,EE Induction lymphocyte antigen 86 (Ly86),[4],4.3
same,EE Induction lysosomal thiol reductase IP30 precursor (IP30),[4],3.7
same,"EE Induction mannose receptor, C type 1 (Mrc1)",[4],2.6
same,EE Induction myo-inositol-1-phosphate synthase (aa221219),[4],167.1
same,EE Induction properdin (Pfc),[4],2.9
same,EE Induction prostaglandin D2 synthase (Ptgds),[4],72.8
same,EE Induction proteinase 3 (Prtn3),[4],24.1
same,EE Induction pyrroline-5-carboxylate synthetase (Pycs),[4],3.3
same,EE Induction serum/glucocorticoid regulated kinase (Sgk),[4],4.5
same,EE Induction signal transducer and activator of transcription 5A (Stat5a),[4],4.1
same,"EE Induction solute carrier family 11, member 1 (Slc11a1)",[4],3.6
same,EE Induction stathmin (Kist),[4],3.5
same,EE Induction testosterone 16-alpha-hydroxylase (C-16-alpha) (Cyp2d9),[4],2.3
same,"EE Induction trefoil factor 3, intestinal (Tff3)",[4],16.3
same,EE Induction type llb Na/phosphate-cotransporter (Npt2b),[4],13.5
"O=c1c(-c2ccc(O)cc2)coc2cc(O)cc(O)c12 [Genistein, genistein]",induction of IPS,[5],no induction
same,"effect on regulation of liver Fnk, JAB, LIX, bcl-3 and SHP expression vs IL-1β alone",[3],magnitude was not as great
same,"inhibition of IL-1β induction of Fnk, JAB, LIX and bcl-3",[3]; mouse liver,inhibited
